Experimental findings from US20030010621A1, “NOVEL SYNTHESIS OF PHTHALOCYANINES BY MICROWAVE IRRADIATION” (priority 2001, published 2003) are described below.

A short description of this data set: Solubility of lab-made phthalocyanines in organic solvents. The class given is physicochemical.

Take `[Co+2].c1ccc2c(c1)-c1nc-2nc2[n-]c(nc3nc(nc4[n-]c(n1)c1ccccc41)-c1ccccc1-3)c1ccccc21` [CoPc]: the solubility result is, setting by setting: (THF) “◯ (slightly soluble (1 wt. % ˜ 3 wt. %))”; (acetone) “◯ (slightly soluble (1 wt. % ˜ 3 wt. %))”; (methanol) “Δ (hardly soluble (<1 wt. %))”; (n-hexane) “Δ (hardly soluble (<1 wt. %))”; (toluene) “◯ (slightly soluble (1 wt. % ˜ 3 wt. %))”.
`[Ni+2].c1ccc2c(c1)-c1nc-2nc2[n-]c(nc3nc(nc4[n-]c(n1)c1ccccc41)-c1ccccc1-3)c1ccccc21` [NiPc]: the solubility entry (THF) is listed as “◯ (slightly soluble (1 wt. % ˜ 3 wt. %))”; the solubility entry (acetone) was “◯ (slightly soluble (1 wt. % ˜ 3 wt. %))”; the solubility entry (methanol) is “Δ (hardly soluble (<1 wt. %))”; the solubility result (n-hexane) is “Δ (hardly soluble (<1 wt. %))”; the solubility entry (toluene) is “◯ (slightly soluble (1 wt. % ˜ 3 wt. %))”.
